Laboratory results as given in PMC7301697 (Journal of Enzyme Inhibition and Medicinal Chemistry, 2020).

What was measured:
[1] = biological target: T1, Polyphosphate kinase 1 (PPK1) (Escherichia coli, UniProt P0A7B1); test: SPR single-concentration response at […]; assay type: binding
T1 sequence (P0A7B1 2-688): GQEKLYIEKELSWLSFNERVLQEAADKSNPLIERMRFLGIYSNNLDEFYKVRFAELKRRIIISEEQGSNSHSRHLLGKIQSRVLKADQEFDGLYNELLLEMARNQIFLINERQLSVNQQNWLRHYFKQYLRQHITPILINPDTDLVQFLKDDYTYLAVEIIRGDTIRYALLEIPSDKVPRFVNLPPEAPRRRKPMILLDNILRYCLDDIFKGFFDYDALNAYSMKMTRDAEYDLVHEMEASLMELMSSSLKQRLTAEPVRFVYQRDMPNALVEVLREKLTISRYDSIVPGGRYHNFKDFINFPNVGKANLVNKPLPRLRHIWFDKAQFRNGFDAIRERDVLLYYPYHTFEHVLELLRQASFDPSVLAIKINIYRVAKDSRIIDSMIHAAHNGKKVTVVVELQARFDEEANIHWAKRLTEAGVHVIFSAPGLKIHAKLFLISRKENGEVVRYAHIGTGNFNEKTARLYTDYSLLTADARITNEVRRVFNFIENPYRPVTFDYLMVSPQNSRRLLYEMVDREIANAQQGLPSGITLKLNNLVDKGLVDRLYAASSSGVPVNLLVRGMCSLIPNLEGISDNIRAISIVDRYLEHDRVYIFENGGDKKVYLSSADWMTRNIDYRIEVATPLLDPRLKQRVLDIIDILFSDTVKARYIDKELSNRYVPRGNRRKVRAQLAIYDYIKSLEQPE

[2] = biological target: T1, Polyphosphate kinase 1 (PPK1); test: SPR; assay type: binding

Row | SMILES | SPR single-concentration response at 100 μM (positive control) [1] | Kd [2] [µM]
1 | COc1cc([C@@H]2c3cc4c(cc3[C@@H](O[C@@H]3O[C@@H]5CO[C@@H](C)O[C@H]5[C@H](O)[C@H]3O)[C@H]3COC(=O)[C@H]23)OCO4)cc(OC)c1O [Etoposide] | 3.06 100RU/Da | 
2 | O=[N+]([O-])c1ccc2nc(-c3ccc(Cl)cc3)[nH]c2c1 [compound 8, 8] |  | 85.8
3 | Cc1ccc(C(=O)Nc2ccc(Cl)cc2)cc1C(F)(F)F [compound 17, 17] |  | 84.6
